Assay results: patent US11053204B2, “Pyrimidinyloxy benzene derivatives as herbicides” (FMC Corporation, priority 2015, dated 2021)

Columns and labels:
Assay type in all cases: in vivo
[1] = test system: johnsongrass (Sorghum halepense); assay: Test C preemergence, plant response rating
[2] = test system: pigweed, palmer (palmer pigweed, Amaranthus palmeri); assay: Test C preemergence, plant response rating
[3] = test system: kochia (Kochia scoparia); assay: Test C preemergence, plant response rating
[4] = test system: wild poinsettia (Euphorbia heterophylla); assay: Test C preemergence, plant response rating
[5] = test system: windgrass (Apera spica-venti); assay: Test C preemergence, plant response rating
[6] = test system: oat, wild (wild oat Avena fatua); assay: Test C preemergence, plant response rating
[7] = test system: Canada thistle (Cirsium arvense); assay: Test C postemergence, plant response rating; settings: for Canada Thistle plant response rating: scale 0 to 100 (0 no effect, 100 complete control)
Summary of the method: (§1)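 After sowing in loam–sand blend or silt loam, pots were sprayed preemergence; separately grown 1- to 4-leaf plants were sprayed postemergence. Following 13 to 15 d under greenhouse conditions, injury was rated visually on a 0 to 100 scale.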

[8] = test system: buckwheat, wild (wild buckwheat, Polygonum convolvulus); assay: Test C postemergence, plant response rating; settings: for Buckwheat, Wild plant response rating: scale 0 to 100 (0 no effect, 100 complete control)
Summary of the method: as §1

[9] = test system: field poppy (Papaver rhoeas); assay: Test C postemergence, plant response rating; settings: for Field Poppy plant response rating: scale 0 to 100 (0 no effect, 100 complete control)
Summary of the method: as §1

[10] = test system: field violet (Viola arvensis); assay: Test C postemergence, plant response rating; settings: for Field Violet plant response rating: scale 0 to 100 (0 no effect, 100 complete control)
Summary of the method: as §1

[11] = test system: geranium, cutleaf (cutleaf geranium, Geranium dissectum); assay: Test C postemergence, plant response rating; settings: for Geranium, Cutleaf plant response rating: scale 0 to 100 (0 no effect, 100 complete control)
Summary of the method: as §1

[12] = test system: johnsongrass (Sorghum halepense); assay: Test C postemergence, plant response rating; settings: for Johnsongrass plant response rating: scale 0 to 100 (0 no effect, 100 complete control)
Summary of the method: as §1

[13] = test system: nightshade (eastern black nightshade, Solanum ptycanthum); assay: Test C postemergence, plant response rating; settings: for Nightshade plant response rating: scale 0 to 100 (0 no effect, 100 complete control)
Summary of the method: as §1

[14] = test system: pigweed, palmer (palmer pigweed, Amaranthus palmeri); assay: Test C postemergence, plant response rating; settings: for Pigweed, Palmer plant response rating: scale 0 to 100 (0 no effect, 100 complete control)
Summary of the method: as §1

[15] = test system: speedwell (bird's-eye speedwell, Veronica persica); assay: Test C postemergence, plant response rating; settings: for Speedwell plant response rating: scale 0 to 100 (0 no effect, 100 complete control)
Summary of the method: as §1

[16] = test system: surinam grass (Brachiaria decumbens); assay: Test C postemergence, plant response rating
Summary of the method: as §1

[17] = test system: wild mustard (Sinapis arvensis); assay: Test C postemergence, plant response rating; settings: for Mustard, Wild plant response rating: scale 0 to 100 (0 no effect, 100 complete control)
Summary of the method: as §1

[18] = test system: wild poinsettia (Euphorbia heterophylla); assay: Test C postemergence, plant response rating; settings: for Poinsettia, Wild plant response rating: scale 0 to 100 (0 no effect, 100 complete control)
Summary of the method: as §1

[19] = test system: windgrass (Apera spica-venti); assay: Test C postemergence, plant response rating
Summary of the method: as §1

[20] = 125 g ai/ha, scale 0 to 100 (0 no effect, 100 complete control)

## FC(F)(F)CCCCc1c(Br)cccc1Oc1ncc(Cl)cn1 [Compound 138]
[1]; 31 g ai/ha, scale 0 to 100
  Plant response rating, Johnsongrass: 0
[1]; 62 g ai/ha, scale 0 to 100
  Plant response rating, Johnsongrass: 50
[1]; 125 g ai/ha, scale of 0 to 100
  Plant response rating, Johnsongrass: 60
[2]; 31 g ai/ha, scale 0 to 100
  Plant response rating, Pigweed, Palmer: 60
[2]; 62 g ai/ha, scale 0 to 100
  Plant response rating, Pigweed, Palmer: 100
[2]; 125 g ai/ha, scale of 0 to 100
  Plant response rating, Pigweed, Palmer: 100
[3]; 31 g ai/ha, scale 0 to 100
  Plant response rating, Kochia: 75
[3]; 62 g ai/ha, scale 0 to 100
  Plant response rating, Kochia: 80
[3]; 125 g ai/ha, scale of 0 to 100
  Plant response rating, Kochia: 80
[4]; 31 g ai/ha, scale 0 to 100
  Plant response rating, Poinsettia, Wild: 0
[4]; 62 g ai/ha, scale 0 to 100
  Plant response rating, Poinsettia, Wild: 5
[4]; 125 g ai/ha, scale of 0 to 100
  Plant response rating, Poinsettia, Wild: 50
[5]; 31 g ai/ha, scale 0 to 100
  Plant response rating, Windgrass: 100
[5]; 62 g ai/ha, scale 0 to 100
  Plant response rating, Windgrass: 100
[5]; 125 g ai/ha, scale of 0 to 100
  Plant response rating, Windgrass: 100
[6]; 31 g ai/ha, scale 0 to 100
  Plant response rating, Oat, Wild: 0
[6]; 62 g ai/ha, scale 0 to 100
  Plant response rating, Oat, Wild: 5
[6]; 125 g ai/ha, scale of 0 to 100
  Plant response rating, Oat, Wild: 30
[7]; 16 g ai/ha, scale of 0 to 100
  Plant response rating, Canada Thistle: 80
[7]; 31 g ai/ha, scale 0 to 100
  Plant response rating, Canada Thistle: 80
[7]; 62 g ai/ha
  Canada Thistle plant response rating: 90
[7]; 125 g ai/ha
  Canada Thistle plant response rating: 95
[8]; 16 g ai/ha, scale of 0 to 100
  Plant response rating, Buckwheat, Wild: 70
[8]; 31 g ai/ha, scale 0 to 100
  Plant response rating, Buckwheat, Wild: 80
[8]; 62 g ai/ha
  Buckwheat, Wild plant response rating: 100
[8]; 125 g ai/ha
  Buckwheat, Wild plant response rating: 100
[9]; 16 g ai/ha, scale of 0 to 100
  Plant response rating, Field Poppy: 100
[9]; 31 g ai/ha, scale 0 to 100
  Plant response rating, Field Poppy: 100
[9]; 62 g ai/ha
  Field Poppy plant response rating: 100
[9]; 125 g ai/ha
  Field Poppy plant response rating: 100
[10]; 16 g ai/ha, scale of 0 to 100
  Plant response rating, Field Violet: 90
[10]; 31 g ai/ha, scale 0 to 100
  Plant response rating, Field Violet: 95
[10]; 62 g ai/ha
  Field Violet plant response rating: 100
[10]; 125 g ai/ha
  Field Violet plant response rating: 100
[11]; 16 g ai/ha, scale of 0 to 100
  Plant response rating, Geranium, Cutleaf: 30
[11]; 31 g ai/ha, scale 0 to 100
  Plant response rating, Geranium, Cutleaf: 35
[11]; 62 g ai/ha
  Geranium, Cutleaf plant response rating: 55
[11]; 125 g ai/ha
  Geranium, Cutleaf plant response rating: 60
[12]; 16 g ai/ha, scale of 0 to 100
  Plant response rating, Johnsongrass: 10
[12]; 31 g ai/ha, scale 0 to 100
  Plant response rating, Johnsongrass: 25
[12]; 62 g ai/ha
  Johnsongrass plant response rating: 80
[12]; 125 g ai/ha
  Johnsongrass plant response rating: 90
[13]; 16 g ai/ha, scale of 0 to 100
  Plant response rating, Nightshade: 75
[13]; 31 g ai/ha, scale 0 to 100
  Plant response rating, Nightshade: 80
[13]; 62 g ai/ha
  Nightshade plant response rating: 100
[13]; 125 g ai/ha
  Nightshade plant response rating: 98
[14]; 16 g ai/ha, scale of 0 to 100
  Plant response rating, Pigweed, Palmer: 75
[14]; 31 g ai/ha, scale 0 to 100
  Plant response rating, Pigweed, Palmer: 80
[14]; 62 g ai/ha
  Pigweed, Palmer plant response rating: 90
[14]; 125 g ai/ha
  Pigweed, Palmer plant response rating: 98
[15]; 16 g ai/ha, scale of 0 to 100
  Plant response rating, Speedwell: 95
[15]; 31 g ai/ha, scale 0 to 100
  Plant response rating, Speedwell: 100
[15]; 62 g ai/ha
  Speedwell plant response rating: 100
[15]; 125 g ai/ha
  Speedwell plant response rating: 100
[16]; 16 g ai/ha, scale of 0 to 100
  Plant response rating, Surinam Grass: 20
[16]; 31 g ai/ha, scale 0 to 100
  Plant response rating, Surinam Grass: 20
[16]; [20]
  Surinam Grass plant response rating: 35
[17]; 16 g ai/ha, scale of 0 to 100
  Plant response rating, Mustard, Wild: 100
[17]; 31 g ai/ha, scale 0 to 100
  Plant response rating, Mustard, Wild: 100
[17]; 62 g ai/ha
  Mustard, Wild plant response rating: 100
[17]; 125 g ai/ha
  Mustard, Wild plant response rating: 100
[18]; 16 g ai/ha, scale of 0 to 100
  Plant response rating, Poinsettia, Wild: 30
[18]; 31 g ai/ha, scale 0 to 100
  Plant response rating, Poinsettia, Wild: 60
[18]; 62 g ai/ha
  Poinsettia, Wild plant response rating: 75
[18]; 125 g ai/ha
  Poinsettia, Wild plant response rating: 90
[19]; 16 g ai/ha, scale of 0 to 100
  Plant response rating, Windgrass: 0
[19]; 31 g ai/ha, scale 0 to 100
  Plant response rating, Windgrass: 15
[19]; [20]
  Windgrass plant response rating: 50
